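Abbreviation: GI50, concentration required for 50% inhibition of growth. TGI: concentration producing complete growth inhibition.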
How the values were obtained:
Test in all cases: growth of human tumour cells (NCI), 384-well format
[1] = test system: RXF 393 renal
[2] = test system: COLO 205 colon
[3] = test system: LOX IMVI melanoma
[4] = test system: A549 NSCLC
[5] = test system: HOP-92 NSCLC
[6] = test system: TK-10 renal
[7] = test system: OVCAR-5 ovarian
[8] = test system: SW-620 colon
[9] = test system: NCI-H522 lung
[10] = test system: 786-0 renal
[11] = test system: M14 melanoma
[12] = test system: OVCAR-8 ovarian
[13] = test system: ACHN renal
[14] = test system: U251 glioblastoma
[15] = test system: KM12 colon
[16] = test system: SK-MEL-28 melanoma
[17] = test system: MOLT-4 leukemia
[18] = test system: SN12C renal
[19] = test system: SF-268 CNS
[20] = test system: NCI-H322M lung
[21] = test system: MCF7 breast
[22] = test system: UACC-62 melanoma
[23] = test system: MDA-MB-435 melanoma
[24] = test system: MDA-MB-468 breast
[25] = test system: SR leukemia
[26] = test system: SF-539 CNS
[27] = test system: HOP-62 NSCLC
[28] = test system: SF-295 CNS
[29] = test system: HL-60(TB) leukemia
[30] = test system: PC-3 prostate
[31] = test system: OVCAR-3 ovarian
[32] = test system: NCI-H23 lung
[33] = test system: MALME-3M melanoma
[34] = test system: HCC-2998 colon
[35] = test system: IGROV1 ovarian
[36] = test system: UACC-257 melanoma
[37] = test system: SK-MEL-5 melanoma
[38] = test system: A498 renal
[39] = test system: UO-31 renal
[40] = test system: NCI/ADR-RES ovarian
[41] = test system: HCT-15 colon
[42] = test system: SK-MEL-2 melanoma
[43] = test system: SNB-19 CNS
[44] = test system: MDA-MB-231 breast
[45] = test system: RPMI-8226 leukemia
[46] = test system: DU-145 prostate
[47] = test system: HT29 colon
[48] = test system: K-562 leukemia
[49] = test system: SK-OV-3 ovarian
[50] = test system: NCI-H226 lung
[51] = test system: BT-549 breast
[52] = test system: CCRF-CEM leukemia
[53] = test system: OVCAR-4 ovarian
[54] = test system: CAKI-1 renal
[55] = test system: HCT-116 colon
[56] = test system: NCI-H460 NSCLC
[57] = test system: T-47D breast

`COc1cccc2c1C(=N)c1c(O)c3c(c(O)c1C2=O)C[C@@](O)(C(C)=O)C[C@@H]3O[C@H]1C[C@H](N)[C@H](O)[C@H](C)O1` showed a GI50 [1] of 41.7 nM, a TGI [1] of 147 nM and a GI50 [2] of 44.8 nM. The TGI [2] was 231 nM, the GI50 [3] was 144 nM and the TGI [3] was 338 nM. For the same compound, the GI50 [4] was 76.1 nM, the TGI [4] was 334 nM and the GI50 [5] was 62.9 nM. For the same compound, the TGI [5] was 278 nM, the GI50 [6] was 128 nM and the TGI [6] was 403 nM. It also gave a GI50 [7] of 179 nM, a TGI [7] of 583 nM and a GI50 [8] of 42.8 nM. It also gave a TGI [8] of 281 nM, a GI50 [9] of 55.3 nM and a TGI [9] of 206 nM. It also gave a GI50 [10] of 86.9 nM, a TGI [10] of 244 nM and a GI50 [11] of 73.6 nM. The TGI [11] was 445 nM, the GI50 [12] was 42.9 nM and the TGI [12] was 745 nM. It also gave a GI50 [13] of 120 nM, a TGI [13] of 567 nM and a GI50 [14] of 50.9 nM. For the same compound, the TGI [14] was 187 nM, the GI50 [15] was 66 nM and the TGI [15] was 206 nM. The GI50 [16] was 131 nM, the TGI [16] was 468 nM and the GI50 [17] was less than 10 nM. The TGI [17] was less than 10 nM, the GI50 [18] was 48.7 nM and the TGI [18] was 185 nM. The GI50 [19] was 59.9 nM, the TGI [19] was 262 nM and the GI50 [20] was 637 nM. For the same compound, the TGI [20] was 2080 nM, the GI50 [21] was 61.2 nM and the TGI [21] was 1360 nM. For the same compound, the GI50 [22] was 71.6 nM, the TGI [22] was 466 nM and the GI50 [23] was 166 nM. It also gave a TGI [23] of 1090 nM, a GI50 [24] of 41.8 nM and a TGI [24] of 153 nM. For the same compound, the GI50 [25] was less than 10 nM, the TGI [25] was less than 10 nM and the GI50 [26] was 36.6 nM. For the same compound, the TGI [26] was 119 nM, the GI50 [27] was 51.3 nM and the TGI [27] was 173 nM. The GI50 [28] was 103 nM, the TGI [28] was 345 nM and the GI50 [29] was less than 10 nM. It also gave a TGI [29] of less than 10 nM, a GI50 [30] of 224 nM and a TGI [30] of 1330 nM. For the same compound, the GI50 [31] was 102 nM, the TGI [31] was 353 nM and the GI50 [32] was 47.9 nM. For the same compound, the TGI [32] was 200 nM, the GI50 [33] was 220 nM and the TGI [33] was 953 nM. For the same compound, the GI50 [34] was 114 nM, the TGI [34] was 272 nM and the GI50 [35] was 343 nM. It also gave a TGI [35] of 2010 nM, a GI50 [36] of 455 nM and a TGI [36] of 1820 nM. For the same compound, the GI50 [37] was 97.3 nM, the TGI [37] was 437 nM and the GI50 [38] was 91.9 nM. It also gave a TGI [38] of 1070 nM, a GI50 [39] of 707 nM and a TGI [39] of 2090 nM. The GI50 [40] was 7530 nM, the TGI [40] was 25400 nM and the GI50 [41] was 417 nM. It also gave a TGI [41] of 1560 nM, a GI50 [42] of 184 nM and a TGI [42] of 345 nM. For the same compound, the GI50 [43] was 63.3 nM, the TGI [43] was 376 nM and the GI50 [44] was 181 nM. For the same compound, the TGI [44] was 379 nM, the GI50 [45] was less than 10 nM and the TGI [45] was 22.3 nM. It also gave a GI50 [46] of 108 nM, a TGI [46] of 399 nM and a GI50 [47] of 119 nM. It also gave a TGI [47] of 250 nM, a GI50 [48] of 90.4 nM and a TGI [48] of 452 nM. The GI50 [49] was 88.4 nM, the TGI [49] was 270 nM and the GI50 [50] was 124 nM. For the same compound, the TGI [50] was 318 nM, the GI50 [51] was 116 nM and the TGI [51] was 335 nM. It also gave a GI50 [52] of 10.3 nM, a TGI [52] of 22.8 nM and a GI50 [53] of 387 nM. It also gave a TGI [53] of 1370 nM, a GI50 [54] of 90.9 nM and a TGI [54] of 668 nM. The GI50 [55] was 46.7 nM, the TGI [55] was 1010 nM and the GI50 [56] was 28.2 nM. It also gave a TGI [56] of 126 nM, a GI50 [57] of 61.1 nM and a TGI [57] of 451 nM.
